The results in this text go back to patent publication US10251931B2, “Cyclic peptides and methods using same” (priority 2014, dated 2019).

“Also recorded” adds a separate entry of the source. Where two headings read alike, the source gives them in different places. Starred links: 1 amine or outer side, 2 acyl side, 3 side chain; linkers in the order of their positions; H or OH if unused. Positions of bridges follow the written chain, without caps; N, C: chain ends. Non-standard residues stand in square brackets, D forms with d. Residues, ends and D or L forms follow the SMILES beside them. ξ: configuration not given here. Pro(cis-4-Trz(4-CH2CH2Ph)) = O=C(O)[C@@H]1C[C@H](n2cc(CCc3ccccc3)nn2)CN1; X4 = O=C([C@@H]1C[C@H](n2cc(C3C4CC5CC(C4)CC3C5)nn2)CN1[*:1])[*:2]; Ile(3ξ) = CCC(C)[C@H](N)C(=O)O; Orn = NCCC[C@H](N)C(=O)O; Dab = NCC[C@H](N)C(=O)O; ξD = NC(CC(=O)O)C(=O)O

One experiment has as its target T1, HIV-1 gp120 (Human immunodeficiency virus type 1 group M subtype B, UniProt P35961).
T1 construct: Expression and Purification of Wild-Type gp120YU-2; made in house; host or cells: HEK 293F
Format: binding. As for the experimental part:
SPR competition binding assays were used to assess the structural elements required for cyclic hexapeptide binding to gp120. […] In an attempt to restore the lost contact, the length of the two linkers was changed (Linker 1 and Linker 2 in FIG. 12).
SPR experiments were performed on a Biacore 3000 optical biosensor (GE Healthcare). All experiments were carried out at 25° C. using standard PBS buffer pH=7.4 with 0.005% surfactant Tween. A CM5 sensor chip was derivatized by standard 1-ethyl-3-(3-dimethylaminopropyl) carbodiimide (EDC)/N-hydroxysuccinimide (NHS) chemistry, and coupling was done through ligand amine groups. Antibody 2B6R (α-human IL5R) was immobilized for negative control surfaces. For competition experiments, soluble four domain CD4 and 17b antibody were immobilized on the surface through standard EDC/NHS chemistry. For kinetic analyses, typically 2000-3000 RUs of protein reagents were immobilized on SPR chips, and analytes were passed over the surface at 50-100 μL/min. Surface regeneration was achieved by a 5 μL injection of 10 mM HCl solution at 100 μL/min. […] Regeneration of the surface was achieved by a single 10 second pulse of 1.3 M NaCl/35 mM NaOH and single 5-second pulse of 10 mM glycine, pH 1.5, for sCD4 and mAb 17b, respectively. All analyses were performed in triplicate.
The inhibition curve was converted into a calibration curve by the use of a fitting function. The fitting was done using the 4-parameter Equation (1) from BIAevaluation software,
The cyclic peptides of the invention were tested against HIV-1 gp120 by SPR competition assays as described elsewhere herein. A mixture of the cyclic peptide/gp120 solutions was passed over SPR chip immobilized with CD4 and 17b separately. The competition assay evaluated the ability of each peptide to inhibit the binding between gp120 and both soluble CD4 and 17b antibody, a surrogate for co-receptor.

For the next experiment, the system named is HIV-1 Bal.01 pseudovirus. Briefly: Inhibition of HIV-1 infection against Bal.01 (HOS.T4.R5 cells, luciferase). Type of experiment: cell-based.
For a further experiment, the system named is HIV-1 JR-FL pseudovirus. In words: Inhibition of HIV-1 infection against JR-FL (HOS.T4.R5 cells, luciferase). Format: cell-based.

In the case of `CC[C@H](C)[C@@H]1NC(=O)[C@H](CC(N)=O)NC(=O)[C@H](CC(N)=O)NC(=O)[C@@H](N)CCC(=O)NCCCC[C@@H](C(N)=O)NC(=O)[C@H](Cc2c[nH]c3ccccc23)NC(=O)[C@@H]2C[C@H](n3cc(CCc4ccccc4)nn3)CN2C1=O` [AAR026, 2,2′-((3S,6S,15S,18S,21S,24S,28S,29aS)-3-((1H-indol-3-yl)methyl)-15-amino-24-((S)-sec-butyl)-6-carbamoyl-1,4,12,16,19,22,25-heptaoxo-28-(4-phenethyl-1H-1,2,3-triazol-1-yl)octacosahydro-1H-pyrrolo[2,1-f][1,4,7,10,13,16,22]heptaazacycloheptacosine-18,21-diyl)diacetamide] (H-ENNI[Pro(cis-4-Trz(4-CH2CH2Ph))]WK-NH2; lactam 1-7), the “Dual receptor site (CD4 and 17b) inhibition of gp120, in words” value on HIV-1 gp120 (SPR competition) is given as “retained the dual receptor site inhibitory signature of linear PTs; also recorded: dual inhibitors”.

As to `CCC(C)[C@@H]1NC(=O)[C@H](CC(N)=O)NC(=O)[C@@H](N)CC(=O)NCCCC[C@@H](C(N)=O)NC(=O)[C@H](Cc2c[nH]c3ccccc23)NC(=O)[C@@H]2C[C@H](n3cc(C4C5CC6CC(C5)CC4C6)nn3)CN2C1=O` (stereo partly drawn) [AAR029F, (3S,6S,14S,17S,20S,24S,25aS)-3-((1H-indol-3-yl)methyl)-24-(4-((1R,3S,5S,7S)-adamantan-2-yl)-1H-1,2,3-triazol-1-yl)-14-amino-17-(2-amino-2-oxoethyl)-20-(sec-butyl)-1,4,12,15,18,21-hexaoxotetracosahydro-1H-pyrrolo[2,1-f][1,4,7,10,13,18]hexaazacyclotricosine-6-carboxamide] (H-DN[Ile(3ξ)][X4]WK-NH2; lactam 1-6), the “Dual receptor site (CD4 and 17b) inhibition of gp120, in words” value on HIV-1 gp120 (SPR competition) is given as “dual inhibitors”. As for `CC[C@H](C)[C@@H]1NC(=O)[C@H](CC(N)=O)NC(=O)[C@@H](N)CCC(=O)NCC[C@@H](C(N)=O)NC(=O)[C@H](Cc2c[nH]c3ccccc23)NC(=O)[C@@H]2C[C@H](n3cc(CCc4ccccc4)nn3)CN2C1=O` [AAR030, (3S,6S,13S,16S,19S,23S,24aS)-3-((1H-indol-3-yl)methyl)-13-amino-16-(2-amino-2-oxoethyl)-19-((S)-sec-butyl)-1,4,10,14,17,20-hexaoxo-23-(4-phenethyl-1H-1,2,3-triazol-1-yl)tetracosahydropyrrolo[1,2-g][1,4,7,10,13,17]hexaazacyclodocosine-6-carboxamide] (H-ENI[Pro(cis-4-Trz(4-CH2CH2Ph))]W[Dab]-NH2; lactam 1-6), the “Dual receptor site (CD4 and 17b) inhibition of gp120, in words” value at HIV-1 gp120 (SPR competition) was “inactive”. With `CC[C@H](C)[C@@H]1NC(=O)[C@H](CC(N)=O)NC(=O)[C@@H](N)CC(=O)NCCC[C@@H](C(N)=O)NC(=O)[C@H](Cc2c[nH]c3ccccc23)NC(=O)[C@@H]2C[C@H](n3cc(CCc4ccccc4)nn3)CN2C1=O` [AAR031, (3S,6S,13S,16S,19S,23S,24aS)-3-((1H-indol-3-yl)methyl)-13-amino-16-(2-amino-2-oxoethyl)-19-((S)-sec-butyl)-1,4,11,14,17,20-hexaoxo-23-(4-phenethyl-1H-1,2,3-triazol-1-yl)tetracosahydropyrrolo[2,1-f][1,4,7,10,13,18]hexaazacyclodocosine-6-carboxamide] (H-DNI[Pro(cis-4-Trz(4-CH2CH2Ph))]W[Orn]-NH2; lactam 1-6), on HIV-1 gp120 (SPR competition), the “Dual receptor site (CD4 and 17b) inhibition of gp120, in words” value is reported as “dual inhibitors”; the “IC50 value in words” value is listed as “micro molar”.

For the molecule `CC[C@H](C)[C@@H]1NC(=O)[C@H](CC(N)=O)NC(=O)C(N)CC(=O)NCC[C@@H](C(N)=O)NC(=O)[C@H](Cc2c[nH]c3ccccc23)NC(=O)[C@@H]2C[C@H](n3cc(CCc4ccccc4)nn3)CN2C1=O` (stereo partly drawn) [AAR032, (3S,6S,15S,18S,22S,23aS)-3-((1H-indol-3-yl)methyl)-12-amino-15-(2-amino-2-oxoethyl)-18-((S)-sec-butyl)-1,4,10,13,16,19-hexaoxo-22-(4-phenethyl-1H-1,2,3-triazol-1-yl)docosahydro-1H-pyrrolo[1,2-g][1,4,7,10,13,17]hexaazacyclohenicosine-6-carboxamide] (H-[ξD]NI[Pro(cis-4-Trz(4-CH2CH2Ph))]W[Dab]-NH2; lactam 1-6), the “Dual receptor site (CD4 and 17b) inhibition of gp120, in words” value on HIV-1 gp120 (SPR competition) is reported as “dual inhibitors”. Moreover, at HIV-1 gp120 (two-carbon Linker 1 (Dab)), the “fold improvement vs AAR031” value is recorded as around 10 fold. Regarding “(3S,6S,12S,15S,19S,20aS)-3-((1H-indol-3-yl)methyl)-12-amino-15-((S)-sec-butyl)-19-(4-ferrocenyl-1H-1,2,3-triazol-1-yl)-1,4,10,13,16-pentaoxoicosahydropyrrolo [1,2-d][1,4,7,10,14]pentaazacyclooctadecine-6-carboxamide [AAR040]”, on HIV-1 gp120 (SPR competition), the “Dual receptor site (CD4 and 17b) inhibition of gp120, in words” value is listed as “dual inhibitors”.

Take “(3S,6S,14S,17S,20S,24S,25aS)-3-((1H-indol-3-yl)methyl)-14-amino-17-(2-amino-2-oxoethyl)-20-butyl-24-(4-ferrocenyl-1H-1,2,3-triazol-1-yl)-1,4,12,15,18,21-hexaoxotetracosahydro-1H-pyrrolo[2,1-f][1,4,7,10,13,18]hexaazacyclotricosine-6-carboxamide [AAR036]”: on HIV-1 gp120 (SPR competition), the “Dual receptor site (CD4 and 17b) inhibition of gp120, in words” value is recorded as “dual inhibitors”. For “(3S,6S,14S,17S,20S,24S,25aS)-3-((1H-indol-3-yl)methyl)-14-amino-17-(2-amino-2-oxoethyl)-20-cyclohexyl-24-(4-ferrocenyl-1H-1,2,3-triazol-1-yl)-1,4,12,15,18,21-hexaoxotetracosahydro-1H-pyrrolo[2,1-f][1,4,7,10,13,18]hexaazacyclotricosine-6-carboxamide [AAR029b-Chg]”, the “Infection inhibition against Bal.01, in words” value with HIV-1 Bal.01 pseudovirus was “inhibiting activity”. With “(3S,6S,14S,17S,20S,24S,25aS)-3-((1H-indol-3-yl)methyl)-14-amino-17-(2-amino-2-oxoethyl)-20-cyclopropyl-24-(4-ferrocenyl-1H-1,2,3-triazol-1-yl)-1,4,12,15,18,21-hexaoxotetracosahydro-1H-pyrrolo[2,1-f][1,4,7,10,13,18]hexaazacyclotricosine-6-carboxamide [AAR042]”, the “Dual receptor site (CD4 and 17b) inhibition of gp120, in words” value at HIV-1 gp120 (SPR competition) is reported as “dual inhibitors”. In the case of “(3S,6S,14S,17S,20S,24S,25aS)-14-amino-17-(2-amino-2-oxoethyl)-3-(benzo[b]thiophen-3-ylmethyl)-20-(sec-butyl)-24-(4ferocenyl-1H-1,2,3-triazol-1-yl)-1,4,12,15,18,21-hexaoxotetracosahydro-1H-pyrrolo[2,1-f][1,4,7,10,13,18]hexaazacyclotricosine-6-carboxamide [AAR029E]”, the “Infection inhibition against Bal.01, in words” value in the experiment with HIV-1 Bal.01 pseudovirus is listed as “inhibiting activity”. Also, the “Dual receptor site (CD4 and 17b) inhibition of gp120, in words” value at HIV-1 gp120 is listed as “dual inhibitors”. Turning to “(3S,6S,15S,18S,21S,25S,26aS)-3-((1H-indol-3-yl)methyl)-18-(2-amino-2-oxoethyl)-15-((2S,3S)-2-amino-3-methylpentanamido)-21-((S)-sec-butyl)-25-(4-ferrocenyl-1H-1,2,3-triazol-1-yl)-1,4,12,16,19,22-hexaoxohexacosahydropyrrolo[2,1-f][1,4,7,10,13,19]hexaazacyclotetracosine-6-carboxamide [AAR024b]”, the “Infection inhibition against JR-FL, in words” value in the experiment with HIV-1 JR-FL pseudovirus was “inhibiting activity”. Further, the “Infection inhibition against Bal.01, in words” value in the experiment with HIV-1 Bal.01 pseudovirus was “inhibiting activity”. Also, the “Dual receptor site (CD4 and 17b) inhibition of gp120, in words” value on HIV-1 gp120 (SPR competition) is reported as “enhanced dual receptor site antagonizing activities; also recorded: dual inhibitors”.
